From patent publication US20240398828A1, “HETERO-ATOM CONTAINING COMPOUNDS AND USES THEREOF” (Kumquat Biosciences Inc., priority 2021, published 2024)

Tests used:
[1] = target: T1, PTPN1 (i.e., PTP1B) (Homo sapiens, UniProt P18031); experiment: Phosphatase activity assay (DiFMUP substrate), PTP1B; format: biochemical; settings: compounds binned ≤1 uM or >1 uM
T1 sequence (P18031 1-435): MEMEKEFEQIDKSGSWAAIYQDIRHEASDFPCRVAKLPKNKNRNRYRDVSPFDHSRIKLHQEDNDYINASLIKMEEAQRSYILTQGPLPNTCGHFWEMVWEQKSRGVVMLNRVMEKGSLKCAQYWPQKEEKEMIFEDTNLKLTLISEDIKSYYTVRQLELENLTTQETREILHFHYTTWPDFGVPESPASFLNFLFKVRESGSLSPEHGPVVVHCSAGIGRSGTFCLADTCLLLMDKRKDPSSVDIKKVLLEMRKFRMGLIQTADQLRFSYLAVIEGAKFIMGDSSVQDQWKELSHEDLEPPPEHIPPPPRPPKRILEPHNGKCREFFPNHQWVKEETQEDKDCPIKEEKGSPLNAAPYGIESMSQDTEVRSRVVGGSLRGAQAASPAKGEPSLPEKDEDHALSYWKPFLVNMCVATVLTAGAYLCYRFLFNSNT
Outline: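 First, serially diluted inhibitor is mixed about 2 minutes with enzyme in pH 7.5 HEPES/NaCl/EDTA/DTT/Tween-20 buffer. Next, DiFMUP is added at the enzyme's Km, approximately 45 μM for PTPN2. Finally, DiFMU appearance is read continuously at room temperature and rates are fitted for IC50.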

[2] = target: T2, PTPN2 (i.e., TC-PTP) (Homo sapiens, UniProt P17706); experiment: Phosphatase activity assay (DiFMUP substrate), PTPN2; format: biochemical; settings: compounds binned ≤1 uM or >1 uM
T2 sequence (P17706 1-415): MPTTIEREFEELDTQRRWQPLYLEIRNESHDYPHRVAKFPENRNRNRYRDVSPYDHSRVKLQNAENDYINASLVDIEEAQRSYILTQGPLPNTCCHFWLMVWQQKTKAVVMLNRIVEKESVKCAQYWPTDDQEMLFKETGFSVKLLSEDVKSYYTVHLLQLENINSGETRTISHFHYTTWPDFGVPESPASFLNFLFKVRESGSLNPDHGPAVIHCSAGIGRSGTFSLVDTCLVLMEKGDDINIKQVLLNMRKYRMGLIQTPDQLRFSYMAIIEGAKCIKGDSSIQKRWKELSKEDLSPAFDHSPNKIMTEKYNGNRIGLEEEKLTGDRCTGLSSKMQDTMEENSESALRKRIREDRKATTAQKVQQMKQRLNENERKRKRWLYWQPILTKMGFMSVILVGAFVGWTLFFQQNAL
Outline: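 RT, HEPES pH 7.5 buffer with DTT/Tween-20. 10-point inhibitor series premixed ~2 min with enzyme (PTPN2 0.025 ng/ul). Start with DiFMUP at enzyme Km (~45 μM for PTPN2). Read DiFMU ex360/em450 continuously 15–30 min; initial rate vs concentration, 4-parameter fit → IC50.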

| Structure (SMILES) | IC50 [1] [nM] | IC50 [2] [nM] |
| --- | --- | --- |
| CC(C)CCNC1CCCN(c2cc(O)c(N3CC(=O)NS3(=O)=O)c(F)c2)C1 (stereo not shown) [Compound 104, 5-(2-fluoro-6-hydroxy-4-(3-(isopentylamino)piperidin-1-yl)phenyl)-1,2,5-thiadiazolidin-3-one 1,1-dioxide] | ≤ 1000 | ≤ 1000 |
| O=C1CN(c2c(O)ccc(-c3cnn(C4CCCC4)c3)c2F)S(=O)(=O)N1 [Compound 123, 5-(3-(1-cyclopentyl-1H-pyrazol-4-yl)-2-fluoro-6-hydroxyphenyl)-1,2,5-thiadiazolidin-3-one 1,1-dioxide] | ≤ 1000 | ≤ 1000 |
| O=C1CN(c2c(O)ccc(-c3ccn(CC4CCCCC4)c3)c2F)S(=O)(=O)N1 [Compound 272, 5-(3-(1-(cyclohexylmethyl)-1H-pyrrol-3-yl)-2-fluoro-6-hydroxyphenyl)-1,2,5-thiadiazolidin-3-one 1,1-dioxide] | ≤ 1000 | ≤ 1000 |
| O=C1CN(c2c(O)ccc(-c3cn(C4CCCCC4)nc3F)c2F)S(=O)(=O)N1 [Compound 469, 5-(3-(1-cyclohexyl-3-fluoro-1H-pyrazol-4-yl)-2-fluoro-6-hydroxyphenyl)-1,2,5-thiadiazolidin-3-one 1,1-dioxide] | ≤ 1000 | ≤ 1000 |
| CN1CC2(CCC(n3cc(-c4ccc(O)c(N5CC(=O)NS5(=O)=O)c4F)cn3)CC2)C1 [Compound 271, 5-(2-fluoro-6-hydroxy-3-(1-(2-methyl-2-azaspiro[3.5]nonan-7-yl)-1H-pyrazol-4-yl)phenyl)-1,2,5-thiadiazolidin-3-one 1,1-dioxide] | ≤ 1000 | ≤ 1000 |
| NC1CC=C(c2ccc(O)c(N3CC(=O)NS3(=O)=O)c2F)C1 (stereo not shown) [Compound 330, 5-(3-(4-aminocyclopent-1-en-1-yl)-2-fluoro-6-hydroxyphenyl)-1,2,5-thiadiazolidin-3-one 1,1-dioxide] | ≤ 1000 | ≤ 1000 |
| O=C1CN(c2c(O)ccc(-c3cc(C4CC4)no3)c2F)S(=O)(=O)N1 [Compound 256, 5-(3-(3-cyclopropylisoxazol-5-yl)-2-fluoro-6-hydroxyphenyl)-1,2,5-thiadiazolidin-3-one 1,1-dioxide] | ≤ 1000 | ≤ 1000 |
| O=C1CN(c2c(O)ccc(-c3cnn(C4CC4(F)F)c3)c2F)S(=O)(=O)N1 (stereo not shown) [Compound 424, 5-(3-(1-(2,2-difluorocyclopropyl)-1H-pyrazol-4-yl)-2-fluoro-6-hydroxyphenyl)-1,2,5-thiadiazolidin-3-one 1,1-dioxide] | ≤ 1000 | ≤ 1000 |
| O=C1CN(c2c(O)ccc(-c3cc(N4CC5(CCC5)C4)n[nH]3)c2F)S(=O)(=O)N1 [Compound 323, 5-(3-(3-(2-azaspiro[3.3]heptan-2-yl)-1H-pyrazol-5-yl)-2-fluoro-6-hydroxyphenyl)-1,2,5-thiadiazolidin-3-one 1,1-dioxide] | ≤ 1000 | ≤ 1000 |
| Cn1cc(-c2ccc(O)c(N3CC(=O)NS3(=O)=O)c2F)cc1CCC1CC1 [Compound 392, 5-(3-(5-(2-cyclopropylethyl)-1-methyl-1H-pyrrol-3-yl)-2-fluoro-6-hydroxyphenyl)-1,2,5-thiadiazolidin-3-one 1,1-dioxide] | ≤ 1000 | ≤ 1000 |
| N#C[C@H]1CC[C@H](n2cc(-c3ccc(O)c(N4CC(=O)NS4(=O)=O)c3F)cn2)CC1 [Compound 305, (1r,4r)-4-(4-(3-(1,1-dioxido-4-oxo-1,2,5-thiadiazolidin-2-yl)-2-fluoro-4-hydroxyphenyl)-1H-pyrazol-1-yl)cyclohexane-1-carbonitrile] | ≤ 1000 | ≤ 1000 |
| CN(C)C1CC=C(c2ccc(O)c(N3CC(=O)NS3(=O)=O)c2F)C1 (stereo not shown) [Compound 301, 5-(3-(4-(dimethylamino)cyclopent-1-en-1-yl)-2-fluoro-6-hydroxyphenyl)-1,2,5-thiadiazolidin-3-one 1,1-dioxide] | ≤ 1000 | ≤ 1000 |
| O=C1CN(c2c(O)ccc(-c3cnn(C4CC4)c3)c2Cl)S(=O)(=O)N1 [Compound 260, 5-(2-chloro-3-(1-cyclopropyl-1H-pyrazol-4-yl)-6-hydroxyphenyl)-1,2,5-thiadiazolidin-3-one 1,1-dioxide] | ≤ 1000 | ≤ 1000 |
| O=C1CN(c2c(O)ccc(-c3cc(C(F)F)n[nH]3)c2F)S(=O)(=O)N1 [Compound 337, 5-(3-(3-(difluoromethyl)-1H-pyrazol-5-yl)-2-fluoro-6-hydroxyphenyl)-1,2,5-thiadiazolidin-3-one 1,1-dioxide] | ≤ 1000 | ≤ 1000 |
| O=C1CN(c2c(O)ccc(-c3cnn(C4CC4)c3)c2F)S(=O)(=O)N1 [Compound 133, 5-(3-(1-cyclopropyl-1H-pyrazol-4-yl)-2-fluoro-6-hydroxyphenyl)-1,2,5-thiadiazolidin-3-one 1,1-dioxide] | ≤ 1000 | ≤ 1000 |
| N#CC1(Cn2cc(-c3ccc(O)c(N4CC(=O)NS4(=O)=O)c3F)cn2)CCC1 [Compound 313, 1-((4-(3-(1,1-dioxido-4-oxo-1,2,5-thiadiazolidin-2-yl)-2-fluoro-4-hydroxyphenyl)-1H-pyrazol-1-yl)methyl)cyclobutane-1-carbonitrile] | ≤ 1000 | ≤ 1000 |
| O=C1CN(c2c(O)ccc(-c3cnn(C4CN(C5CC5)C4)c3)c2F)S(=O)(=O)N1 [Compound 275, 5-(3-(1-(1-cyclopropylazetidin-3-yl)-1H-pyrazol-4-yl)-2-fluoro-6-hydroxyphenyl)-1,2,5-thiadiazolidin-3-one 1,1-dioxide] | ≤ 1000 | ≤ 1000 |
| O=C1CN(c2c(O)ccc(-c3cc(C4CCOC4)n[nH]3)c2F)S(=O)(=O)N1 (stereo not shown) [Compound 326, 5-(2-fluoro-6-hydroxy-3-(3-(tetrahydrofuran-3-yl)-1H-pyrazol-5-yl)phenyl)-1,2,5-thiadiazolidin-3-one 1,1-dioxide] | ≤ 1000 | ≤ 1000 |
| Cn1nc(-c2ccc(O)c(N3CC(=O)NS3(=O)=O)c2F)cc1C1CCCN1 (stereo not shown) [Compound 468, 5-(2-fluoro-6-hydroxy-3-(1-methyl-5-(pyrrolidin-2-yl)-1H-pyrazol-3-yl)phenyl)-1,2,5-thiadiazolidin-3-one 1,1-dioxide] | ≤ 1000 | > 1000 |
| O=C1CN(c2c(O)ccc(-c3cc(C4CC4)n(C(F)F)n3)c2F)S(=O)(=O)N1 [Compound 518, 5-(3-(5-cyclopropyl-1-(difluoromethyl)-1H-pyrazol-3-yl)-2-fluoro-6-hydroxyphenyl)-1,2,5-thiadiazolidin-3-one 1,1-dioxide] | ≤ 1000 | ≤ 1000 |
| O=C1CN(c2c(O)ccc(-c3cn(C4CCCC4)cn3)c2F)S(=O)(=O)N1 [Compound 302, 5-(3-(1-cyclopentyl-1H-imidazol-4-yl)-2-fluoro-6-hydroxyphenyl)-1,2,5-thiadiazolidin-3-one 1,1-dioxide] | ≤ 1000 | ≤ 1000 |
| O=C1CN(c2c(O)ccc(-c3cnn(CC4(O)CCC4)c3)c2F)S(=O)(=O)N1 [Compound 307, 5-(2-fluoro-6-hydroxy-3-(1-((1-hydroxycyclobutyl)methyl)-1H-pyrazol-4-yl)phenyl)-1,2,5-thiadiazolidin-3-one 1,1-dioxide] | ≤ 1000 | ≤ 1000 |
| Cn1nc(-c2ccc(O)c(N3CC(=O)NS3(=O)=O)c2F)cc1CCC#N [Compound 432, 3-(3-(3-(1,1-dioxido-4-oxo-1,2,5-thiadiazolidin-2-yl)-2-fluoro-4-hydroxyphenyl)-1-methyl-1H-pyrazol-5-yl)propanenitrile] | ≤ 1000 | ≤ 1000 |
| O=C1CN(c2c(O)ccc(C3=CC(CCC4CC4)NC3)c2F)S(=O)(=O)N1 (stereo not shown) [Compound 539, 5-(3-(5-(2-cyclopropylethyl)-2,5-dihydro-1H-pyrrol-3-yl)-2-fluoro-6-hydroxyphenyl)-1,2,5-thiadiazolidin-3-one 1,1-dioxide] | ≤ 1000 | ≤ 1000 |
| N#Cc1ccc(-n2cnc(-c3ccc(O)c(N4CC(=O)NS4(=O)=O)c3F)c2)cc1 [Compound 427, 4-(4-(3-(1,1-dioxido-4-oxo-1,2,5-thiadiazolidin-2-yl)-2-fluoro-4-hydroxyphenyl)-1H-imidazol-1-yl)benzonitrile] | ≤ 1000 | ≤ 1000 |
| CNC(=O)n1nc(-c2ccc(O)c(N3CC(=O)NS3(=O)=O)c2F)cc1C1CC1 [Compound 543, 5-cyclopropyl-3-(3-(1,1-dioxido-4-oxo-1,2,5-thiadiazolidin-2-yl)-2-fluoro-4-hydroxyphenyl)-N-methyl-1H-pyrazole-1-carboxamide] | ≤ 1000 | ≤ 1000 |
